Source: patent US12643889B2, “Synthesis of novel EP4 antagonist and use in cancer and inflammation” (Wuhan Humanwell Innovative Drug Research And Development …, priority 2020, dated 2026)

Legend:
[1] = test system: CT-26 murine colon cancer tumor model; test: Anti-tumor effect in CT-26 murine colon cancer tumor model in combination with radiation therapy; assay type: in vivo, mouse; conditions: 150 mg/kg intragastric once daily in combination with radiotherapy (3Gry, once on day 1); day 23; tumor weight
Procedure: In this assay, the anti-tumor effects of the control compound and the compounds prepared in Examples 1 to 43, in combination with radiation therapy, were tested in a CT-26 murine colon cancer tumor model.
After one week of adaptive feeding of mice, CT-26 cells in a log phase were resuspended in PBS, 5×10^5 CT-26 cells were inoculated subcutaneously at the right flank at 100 μL per mouse, and tumor growth was observed regularly. When the tumor grew to an average volume of 60 to 80 mm^3, the mice carrying the tumor were randomly divided into 5 groups based on the tumor volume size, each group containing 10 mice of 10. These group were a group of Control compound (150 mg/kg) in combination with radiotherapy (3Gry), a group of Compound I-2 (150 mg/kg) in combination with radiotherapy, a group of Compound I-5 (150 mg/kg) in combination with radiotherapy, a group of radiotherapy (3Gry) alone, and a group of vehicle control. The mice were intragastrically administered with the corresponding compound once daily, for 23 days in total; radiation therapy was performed for one-time on the first day of the administration. Tumor volumes and mouse body weights were measured twice a week, and tumor weights were weighed at the end of the experiment. Efficacy evaluations were performed based on relative tumor inhibition (TGI), safety evaluations were performed based on changes in animal body weight and death. Tumor volume and relative tumor inhibition were calculated as follows:
Tumor volume (TV)=½×a×b^2, where a and b are the length and width of the tumor measurement, respectively.
Relative tumor inhibition rate TGI (%)=(TWc−TWt/TWc)×100%, where TWc is the mean tumor weight of the vehicle control group and TW is the mean tumor weight of the treatment group.

[2] = Mouse pharmacokinetic assay; assay type: in vivo, male ICR mice; conditions: male, ICR, plasma
Procedure: In a mouse pharmacokinetic assay, male ICR mice (20 g to 25 g) were selected and fasted overnight. Three mice were selected and intragastrically administered with 5 mg/kg of the corresponding compound. The blood of the mice was collected before the administration and at 15 min, 30 min, 1 h, 2 h, 4 h, 8 h, 24 h after the administration. Another 3 mice were intravenously administered with 1 mg/kg of the corresponding compound, and the blood thereof was collected before the administration and at 15 min, 30 min, 1 h, 2 h, 4 h, 8 h, 24 h after the administration. The blood samples were centrifuged at 6800 g at 2° C. to 8° C. for 6 minutes, and plasma was collected and stored at −80° C. The plasma was taken at respective time point, mixed with 3-5 times the amount of acetonitrile containing internal standard, vortexed for 1 minute, centrifuged at 4° C. for 10 minutes at 13000 rpm, supernatant was added 3 times the amount of water, and the appropriate mixture was taken for LC-MS/MS analysis. The primary pharmacokinetic parameters were analyzed with a WinNonlin 7.0 software, with non-compartmental model.

human EP4 receptor = human EP4 receptor (Homo sapiens, UniProt P35408); test: Assay for EP4 antagonistic effect (cAMP, PGE2-stimulated CHO stable cell line)
Procedure: After trypsinization, cells were resuspended in a buffer (1×HBSS, 0.1% BSA, 20 mM HEPES, and 500 μM IBMX) and 8000 cells were seeded per well in 384-well plates in a seeding volume of 15 μL. A working solution the compound with a 8× concentration was prepared with an experimental buffer, and then 2.5 μL of the working solution of the compound with 8× concentration was added to the 384-well plate, respectively, and incubated at 37° C. for 30 min. An agonist PGE2 working solution with 8× concentration of (4 nM) was prepared with the experimental buffer and 2.5 μL per well was added to the 384-well plate (the final PGE2 concentration was 0.5 nM) and incubated at 37° C. for 30 min. After the reaction was completed, the amount of cAMP in the cells was quantified according to the method in the instructions of the cAMP test kit (Perkin Elmer, Cat #TRF0263). The antagonistic effects (IC50 value) were calculated for the test compounds.

[3] = intravenous administration 1 mg/kg
[4] = oral gavage administration 5 mg/kg

human EP4 receptor, sequence (P35408 whole entry): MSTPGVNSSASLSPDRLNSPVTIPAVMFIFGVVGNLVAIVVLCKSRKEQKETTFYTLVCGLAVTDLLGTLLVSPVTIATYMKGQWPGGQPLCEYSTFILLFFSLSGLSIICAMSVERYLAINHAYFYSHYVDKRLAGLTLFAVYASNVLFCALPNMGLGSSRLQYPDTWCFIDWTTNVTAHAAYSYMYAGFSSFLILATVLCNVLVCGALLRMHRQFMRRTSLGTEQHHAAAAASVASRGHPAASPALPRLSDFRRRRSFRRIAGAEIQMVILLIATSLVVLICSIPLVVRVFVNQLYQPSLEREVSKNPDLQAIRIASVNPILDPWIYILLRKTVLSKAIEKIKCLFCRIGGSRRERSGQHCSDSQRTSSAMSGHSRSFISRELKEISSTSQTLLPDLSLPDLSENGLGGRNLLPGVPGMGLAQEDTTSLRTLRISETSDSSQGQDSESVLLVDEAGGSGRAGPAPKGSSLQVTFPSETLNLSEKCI

AUC(0-t) [2, 3]: 1260 ng·h/mL | clearance [2, 3]: 12.7 mL/min/kg | half-life [2, 3]: 5.11 h | Vd ([2]; intravenous administration 1 mg/kg, read-out: Vz): 5.62 L/kg | AUC(0-t) [2, 4]: 2710 ng·h/mL | Cmax [2, 4]: 1450 ng/mL | Tmax [2, 4]: 0.33 h | half-life [2, 4]: 7 h | IC50 (human EP4 receptor): 2.2 nM
SMILES: C[C@H](NC(=O)c1c(C(F)F)nn(C)c1Oc1cccc(C(C)(F)F)c1)c1ccc(C(=O)O)cc1 [Compound I-5, (S)-4-(1-(5-(3-(1,1-difluoroethyl)phenoxy)-3-(difluoromethyl)-1-methyl-1H-pyrazole-4-carboxamido)ethyl)benzoic Acid]
relative tumor inhibition rate TGI (%) [1]: 79%
